In patent US8895753B2, “S1P receptor modulating agent” (Meiji Seika Pharma Co., Ltd., priority 2011, dated 2014) one finds EC50, Emax and activation data, which are given here for 20 compounds.

Each structure is given as a SMILES string. “And” between values parts separate entries of the source, which are not always exact repeats. Equal values may be shown once.

The term EC50 denotes the concentration giving half of the maximal effect.

The target of assay [1] is T1, Human S1P1 receptor (Homo sapiens, UniProt P21453). Nature of the assay: Agonist activity at an S1P1 receptor ([35S]-GTPγS exchange reaction, membrane fractions). It is filed as biochemical. The settings on record: read-out: EC50, agonist activity at S1P1 receptor (GTP exchange reaction). As to the method: (§1) By using membrane fractions prepared from a human S1P1 receptor expressing cells (Multispan Ltd.), the agonist activity of each test compound was measured by [^35S]-GTPγS exchange reaction in accordance with a standard procedure (Methods in Molecular Biology, Vol. 552, p 143-151 (2009)), and EC50 (nM) of each test compound was computed.

The next assay deals with Human S1P3 receptor (Homo sapiens, UniProt Q99500). Put plainly: Agonist activity at an S1P3 receptor ([35S]-GTPγS exchange reaction at 1000 nM). The settings on record: read-out: percent of the maximal agonist activity at S1P3 receptor. The class given is biochemical. As to the method:
as §1
By using membrane fractions prepared from Human S1P3 receptor expressing cells (Multispan Inc.), the agonist activity of the compound in the present invention was measured by a [^35S]-GTPγS exchange reaction at 1000 nM by the similar method of the Experimental Example 2.
On the technique in general: GTPγS is a poorly hydrolysed GTP analogue; its binding reports G protein activation.

The next assay has as its target T2, Human S1P4 receptor (Homo sapiens, UniProt O95977).
T2 sequence (O95977 1-384): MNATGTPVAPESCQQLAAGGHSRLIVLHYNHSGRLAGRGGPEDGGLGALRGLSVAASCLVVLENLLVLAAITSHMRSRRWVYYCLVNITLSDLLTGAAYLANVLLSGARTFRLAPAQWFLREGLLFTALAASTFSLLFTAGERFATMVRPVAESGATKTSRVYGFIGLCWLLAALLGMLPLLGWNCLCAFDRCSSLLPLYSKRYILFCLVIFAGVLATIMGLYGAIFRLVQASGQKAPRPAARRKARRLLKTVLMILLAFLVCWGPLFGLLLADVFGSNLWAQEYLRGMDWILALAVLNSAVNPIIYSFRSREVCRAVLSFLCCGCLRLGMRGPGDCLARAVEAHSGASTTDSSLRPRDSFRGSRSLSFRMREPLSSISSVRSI
Nature of the assay: Agonist activity at an S1P4 receptor (calcium influx). The class given is cell-based. The settings on record: at 1000 nM; read-out: activity at S1P4 receptor (elevation of intracellular calcium). As to the method: By using Human S1P4 receptor expressing cells (Multispan Inc. CG1052-1), the elevation of intracellular calcium concentration via agonist activity by the addition of 1000 nM was measured by Fret method (fluorescence resonance energy transfer).
In general terms: Calcium assays in cells follow changes in intracellular calcium, usually with a dye or a luminescent sensor.

The target of assay [2] is T1, Human S1P1 receptor. Put plainly: Agonist activity at an S1P1 receptor (reporter assay, EDG1-bla/U2OS cells). The arrangement: host or cells: U2OS (EDG1-bla/U2OS). Conditions: S1P maximum response = 100%. The class given is cell-based. Here is the method:
Human S1P1 receptor gene recombinant EDG1-bla/U2OS cells (Life Technologies Japan Ltd.) were plated in a 96-well half-sized clear bottom black plate at a density of 10000 cells/32 μL/well, and then the plate was incubated at 37° C. in a 5% CO2 incubator for 48 hours. A culture medium containing each test compound prepared as a 5× concentrate was added at 8 μL/well, and the plate was incubated at 37° C. in a 5% CO2 incubator for 5 hours. The substrate (LiveBLAzer™-FRET B/G substrate (CCF4-AM), Life Technologies Japan Ltd.) prepared as a 6× concentrate was added at 8 μL into each well, and the plate was incubated at room temperature for 2 hours in the dark. The fluorescence intensity of each well was detected using a bottom-reading fluorescence microplate reader (EnVision: ParkinElmer) at one excitation wavelength and 2 wavelengths for fluorescence emission (Ex409 nm, Em460 nm, Em530 nm). The intensity ratio of fluorescence at 460 nm/530 nm was calculated for each well. The maximum response ratio confirmed from the dose response of SIP was expressed as 100%. The concentration of a test compound required to stimulate 50% of its maximal activation was computed as EC50 (nM).

Sequence of Human S1P3 receptor (Q99500 whole entry): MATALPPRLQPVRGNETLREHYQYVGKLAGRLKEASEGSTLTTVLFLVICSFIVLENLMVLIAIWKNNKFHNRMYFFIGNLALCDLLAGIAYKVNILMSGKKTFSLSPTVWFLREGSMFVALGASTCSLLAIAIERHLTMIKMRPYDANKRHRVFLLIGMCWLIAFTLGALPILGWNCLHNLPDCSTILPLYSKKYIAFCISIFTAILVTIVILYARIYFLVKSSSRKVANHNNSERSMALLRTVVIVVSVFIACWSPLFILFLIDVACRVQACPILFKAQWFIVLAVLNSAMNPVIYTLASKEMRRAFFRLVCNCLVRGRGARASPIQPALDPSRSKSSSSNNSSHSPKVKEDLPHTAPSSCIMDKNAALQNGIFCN
T1 sequence (P21453 whole entry): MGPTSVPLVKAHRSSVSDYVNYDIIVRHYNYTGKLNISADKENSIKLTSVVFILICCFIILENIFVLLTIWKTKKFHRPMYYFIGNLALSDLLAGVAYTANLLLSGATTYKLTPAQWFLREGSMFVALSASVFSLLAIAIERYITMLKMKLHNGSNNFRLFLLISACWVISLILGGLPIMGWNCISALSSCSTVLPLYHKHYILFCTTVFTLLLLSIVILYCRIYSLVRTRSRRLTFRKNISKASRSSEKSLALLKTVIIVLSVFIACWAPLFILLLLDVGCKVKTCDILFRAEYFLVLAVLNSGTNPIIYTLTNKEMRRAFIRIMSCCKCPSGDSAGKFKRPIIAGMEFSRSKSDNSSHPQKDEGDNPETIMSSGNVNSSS

Consider `CC(C)Oc1ccc(-c2cnc(-c3ccc(CN4CC(C(=O)O)C4)cc3)s2)cc1F` [Example 53, 1-(4-(5-(3-fluoro-4-isopropoxyphenyl)thiazol-2-yl)benzyl)azetidine-3-carboxylic acid], for which the 50% effective concentration (EC50) at Human S1P1 receptor [1] was at most 500 nM; at Human S1P1 receptor [2] it was at most 10 nM. Also, the Emax at 1 µM at Human S1P3 receptor was 20 to 50%. The activation at 1 µM at Human S1P4 receptor is below 20%.
The like results for `Cc1cc(CN2CC(C(=O)O)C2)ccc1-c1ncc(-c2ccc(OC(C)C)c(Cl)c2)s1` [Example 37, 1-(4-(5-(3-chloro-4-isopropoxyphenyl)thiazol-2-yl)-3-methylbenzyl)azetidine-3-carboxylic acid] were, in that order, at most 10 nM, at most 1 nM, 20 to 50% and below 20%.
On to `CC(C)Oc1ccc(-c2cnc(-c3ccc(CN4CC(C(=O)O)C4)cc3Cl)s2)cc1` [Example 12, 1-(3-chloro-4-(5-(4-isopropoxyphenyl)thiazol-2-yl)benzyl)azetidine-3-carboxylic acid], for which the EC50 at Human S1P1 receptor [1] is at most 50 nM; at Human S1P1 receptor [2], at most 10 nM. Further, the Emax at 1 µM on Human S1P3 receptor fell in the range of 20 to 50%. The activation at 1 µM on Human S1P4 receptor is below 20%.
In the same order, the values of `CC(C)Cc1ccc(-c2cnc(-c3ccc(CN4CC(C(=O)O)C4)cc3F)s2)cc1C#N` [Example 59, 1-(4-(5-(3-cyano-4-isobutylphenyl)thiazol-2-yl)-3-fluorobenzyl)azetidine-3-carboxylic acid] are at most 50 nM, at most 1 nM, below 20% and below 20%.
The like results for `CCCCc1ccc(-c2cnc(-c3ccc(CN4CC(C(=O)O)C4)cc3)s2)cc1` [Example 47, 1-(4-(5-(4-butylphenyl)thiazol-2-yl)benzyl)azetidine-3-carboxylic acid] were, in that order, at most 50 nM, at most 10 nM, below 20% and below 20%.
The like results for `CC(C)Oc1ccc(-c2cnc(-c3ccc(CN4CC(C(=O)O)C4)c(Cl)c3)s2)cc1` [Example 23, 1-(2-chloro-4-(5-(4-isopropoxyphenyl)thiazol-2-yl)benzyl)azetidine-3-carboxylic acid] were, in that order, at most 50 nM, at most 10 nM, below 20% and below 20%.
As for `O=C(O)C1CN(Cc2ccc(-c3ncc(-c4ccc(C5CCCC5)cc4)s3)cc2)C1` [Example 34, 1-(4-(5-(4-cyclopentylphenyl)thiazol-2-yl)benzyl)azetidine-3-carboxylic acid], the values for the EC50 at Human S1P1 receptor [1] and at Human S1P1 receptor [2] were at most 10 nM and at most 1 nM, respectively. Besides, the Emax at 1 µM at Human S1P3 receptor was below 20%. The activation at 1 µM on Human S1P4 receptor is below 20%.
On to `O=C(O)C1CN(Cc2ccc(-c3ncc(-c4ccc(OC5CCC5)cc4)s3)cc2)C1` [Example 51, 1-(4-(5-(4-cyclobutoxyphenyl)thiazol-2-yl)benzyl)azetidine-3-carboxylic acid], for which the figures for the EC50 at Human S1P1 receptor [1] and on Human S1P1 receptor [2] were at most 500 nM and at most 100 nM, respectively. In addition, the Emax at 1 µM at Human S1P3 receptor lay within 20 to 50%. Moreover, the activation at 1 µM at Human S1P4 receptor was below 20%.
The like results for `Cc1cc(-c2ncc(-c3ccc(OC(C)C)c(Cl)c3)s2)ccc1CN1CC(C(=O)O)C1` [Example 62, 1-(4-(5-(3-chloro-4-isopropoxyphenyl)thiazol-2-yl)-2-methylbenzyl)azetidine-3-carboxylic acid] were, in that order, at most 10 nM, at most 1 nM, 20 to 50% and below 20%.
In the same order, the values of `O=C(O)C1CN(Cc2ccc(-c3ncc(-c4ccc(C5CCCCC5)cc4)s3)cc2)C1` [Example 36, 1-(4-(5-(4-cyclohexylphenyl)thiazol-2-yl)benzyl)azetidine-3-carboxylic acid] are at most 100 nM, at most 10 nM, below 20% and below 20%.
In the same order, the values of `CC(C)Oc1ccc(-c2cnc(-c3ccc(CN4CC(C(=O)O)C4)c(F)c3)s2)cc1` [Example 22, 1-(2-fluoro-4-(5-(4-isopropoxyphenyl)thiazol-2-yl)benzyl)azetidine-3-carboxylic acid] are at most 10 nM, at most 10 nM, below 20% and below 20%.
For `CC(C)Oc1ccc(-c2cnc(-c3ccc(CN4CC(C(=O)O)C4)cc3F)s2)cc1Cl` [Example 11, 1-(4-(5-(3-chloro-4-isopropoxyphenyl)thiazol-2-yl)-3-fluorobenzyl)azetidine-3-carboxylic acid], the concentration giving a half-maximal response (EC50) at Human S1P1 receptor [1] is at most 10 nM; at Human S1P1 receptor [2] it was ≤ 1 nM and 0.076 nM. Further, the Emax at 1 µM on Human S1P3 receptor lay in the range of 20 to 50%. For the same compound, the activation at 1 µM at Human S1P4 receptor is below 20%.
As to `CCOc1ccc(-c2cnc(-c3ccc(CN4CC(C(=O)O)C4)cc3)s2)cc1` [Example 31, 1-(4-(5-(4-ethoxyphenyl)thiazol-2-yl)benzyl)azetidine-3-carboxylic acid], the EC50 was at most 50 nM on Human S1P1 receptor [1] and at most 100 nM at Human S1P1 receptor [2]. The Emax at 1 µM at Human S1P3 receptor is below 20%. Further, the activation at 1 µM on Human S1P4 receptor was below 20%.
As for `CC(C)Oc1ccc(-c2cnc(-c3ccc(CN4CC(C(=O)O)C4)c(Cl)c3)s2)cc1Cl` [Example 63, 1-(2-chloro-4-(5-(3-chloro-4-isopropoxyphenyl)thiazol-2-yl)benzyl)azetidine-3-carboxylic acid], the EC50 was at most 50 nM at Human S1P1 receptor [1] and at most 1 nM on Human S1P1 receptor [2]. For the same compound, the Emax at 1 µM on Human S1P3 receptor is below 20%. At Human S1P4 receptor, the activation at 1 µM is below 20%.
In the case of `CC(C)Cc1ccc(-c2cnc(-c3ccc(CN4CC(C(=O)O)C4)cc3)s2)cc1` [Example 48, 1-(4-(5-(4-isobutylphenyl)thiazol-2-yl)benzyl)azetidine-3-carboxylic acid], the concentration for a half-maximal effect (EC50) on Human S1P1 receptor [1] is at most 50 nM; on Human S1P1 receptor [2], at most 1 nM. Also, the Emax at 1 µM at Human S1P3 receptor lay in the range of 20 to 50%. Further, the activation at 1 µM at Human S1P4 receptor was below 20%.
As to `CCCOc1ccc(-c2cnc(-c3ccc(CN4CC(C(=O)O)C4)cc3)s2)cc1` [Example 38], the EC50 on Human S1P1 receptor [1] is at most 50 nM; at Human S1P1 receptor [2], at most 100 nM. For the same compound, on Human S1P3 receptor, the Emax at 1 µM is below 20%. Further, the activation at 1 µM on Human S1P4 receptor is below 20%.
As to `CC(C)Oc1ccc(-c2cnc(-c3ccc(CN4CC(C(=O)O)C4)cc3)s2)cc1C(F)(F)F` [Example 56, 1-(4-(5-(4-isopropoxy-3-(trifluoromethyl)phenyl)thiazol-2-yl)benzyl)azetidine-3-carboxylic acid], the results for the EC50 on Human S1P1 receptor [1] and at Human S1P1 receptor [2] were at most 100 nM and at most 1 nM, respectively. For the same compound, the Emax at 1 µM on Human S1P3 receptor was 20 to 50%. Also, the activation at 1 µM on Human S1P4 receptor is below 20%.
In the same order, the values of `CCCc1ccc(-c2cnc(-c3ccc(CN4CC(C(=O)O)C4)cc3)s2)cc1` [Example 45, 1-(4-(5-(4-propylphenyl)thiazol-2-yl)benzyl)azetidine-3-carboxylic acid] are at most 50 nM, at most 10 nM, below 20% and below 20%.
In the same order, the values of `CC(C)Oc1ccc(-c2cnc(-c3ccc(CN4CC(C(=O)O)C4)cc3)s2)cc1C#N` [Example 50, 1-(4-(5-(3-cyano-4-isopropoxyphenyl)thiazol-2-yl)benzyl)azetidine-3-carboxylic acid] are at most 50 nM, at most 1 nM, 20 to 50% and below 20%.
`CC(C)Oc1ccc(-c2cnc(-c3ccc(CN4CC(C(=O)O)C4)cc3)s2)c(C(F)(F)F)c1` [Example 55, 1-(4-(5-(4-isopropoxy-2-(trifluoromethyl)phenyl)thiazol-2-yl)benzyl)azetidine-3-carboxylic acid]: the EC50 on Human S1P1 receptor [1] was at most 500 nM; at Human S1P1 receptor [2], at most 10 nM. Besides, the Emax at 1 µM at Human S1P3 receptor is below 20%. The activation at 1 µM at Human S1P4 receptor is below 20%.
